From ChEMBL document CHEMBL2202954, “The effect of PLC-γ2 inhibitors on the growth of human tumour cells” (2012)

Key:
Assay type in all cases: functional
SF-539 = assay: Cytotoxicity against human SF539 cells assessed as cellular growth at 10 uM by SRB assay
KM12 = assay: Cytotoxicity against human KM12 cells assessed as cellular growth at 10 uM by SRB assay
HCT-15 = assay: Cytotoxicity against human HCT15 cells assessed as cellular growth at 10 uM by SRB assay
SF-295 = assay: Cytotoxicity against human SF295 cells assessed as cellular growth at 10 uM by SRB assay
K562 = assay: Cytotoxicity against human K562 cells assessed as cellular growth at 10 uM by SRB assay
HL-60(TB) = assay: Cytotoxicity against human HL-60(TB) cells assessed as cellular growth at 10 uM by SRB assay
RXF 393 = assay: Cytotoxicity against human RXF393 cells assessed as cellular growth at 10 uM by SRB assay
786-0 = assay: Cytotoxicity against human 786-0 cells assessed as cellular growth at 10 uM by SRB assay
SNB-19 = assay: Cytotoxicity against human SNB19 cells assessed as cellular growth at 10 uM by SRB assay
NCI-H460 = assay: Cytotoxicity against human NCI-H460 cells assessed as cellular growth at 10 uM by SRB assay
PC-3 = assay: Cytotoxicity against human PC3 cells assessed as cellular growth at 10 uM by SRB assay
TK-10 = assay: Cytotoxicity against human TK10 cells assessed as cellular growth at 10 uM by SRB assay
NCI-H522 = assay: Cytotoxicity against human NCI-H522 cells assessed as cellular growth at 10 uM by SRB assay
CAKI-1 = assay: Cytotoxicity against human Caki1 cells assessed as cellular growth at 10 uM by SRB assay
NCI-H226 = assay: Cytotoxicity against human NCI-H226 cells assessed as cellular growth at 10 uM by SRB assay
LOX IMVI = assay: Cytotoxicity against human LOXIMVI cells assessed as cellular growth at 10 uM by SRB assay
[1] = Cytotoxicity against human NCI-ADR-RES cells assessed as cellular growth at 10 uM by SRB assay
SW-620 = assay: Cytotoxicity against human SW620 cells assessed as cellular growth at 10 uM by SRB assay
MDA-MB-468 = assay: Cytotoxicity against human MDA-MB-468 cells assessed as cellular growth at 10 uM by SRB assay
SK-MEL-2 = assay: Cytotoxicity against human SK-MEL-2 cells assessed as cellular growth at 10 uM by SRB assay

| Compound | Activity (SF-539) [%] | Activity (KM12) [%] | Activity (HCT-15) [%] | Activity (SF-295) [%] | Activity (K562) [%] | Activity (HL-60(TB)) [%] | Activity (RXF 393) [%] | Activity (786-0) [%] | Activity (SNB-19) [%] | Activity (NCI-H460) [%] | Activity (PC-3) [%] | Activity (TK-10) [%] | Activity (NCI-H522) [%] | Activity (CAKI-1) [%] | Activity (NCI-H226) [%] | Activity (LOX IMVI) [%] | Activity [1] [%] | Activity (SW-620) [%] | Activity (MDA-MB-468) [%] | Activity (SK-MEL-2) [%] |
| --- | --- | --- | --- | --- | --- | --- | --- | --- | --- | --- | --- | --- | --- | --- | --- | --- | --- | --- | --- | --- |
| O=C(NCc1cccnc1)c1sc2cc([N+](=O)[O-])ccc2c1Cl | 103.86 | 96.39 | 97.65 | 92.94 | 93.09 | 110.91 | 111.54 | 96.95 | 96.96 | 106.27 | 101.92 | 122.07 | 97.09 | 85.26 | 97.25 | 102.15 | 95.58 | 96.99 | 106.53 | – |
| Nc1c(C(=O)Nc2ccccc2F)sc2nc3c(cc12)C(=O)CCC3 | 10.48 | 24.63 | 40.21 | 3.17 | 26.33 | 3387 | 9.63 | 41.5 | 41.11 | 11.41 | 23.38 | 59.66 | -15.17 | 4.36 | 75.1 | 54.2 | -4.39 | 30 | -15.24 | 42.64 |
| Cc1ccccc1NC(=O)c1sc2nc3c(cc2c1N)C(=O)CCC3 | 27.63 | 19.22 | 32.76 | 57.18 | 22.15 | 36.05 | -10.38 | 51.56 | 46.1 | 15.33 | 30.33 | 81.15 | 12.53 | 55.35 | 65.79 | 47.43 | 22.58 | 25.37 | -4.56 | 58.56 |
| Nc1c(C(=O)Nc2ccc(Cl)c(Cl)c2)sc2nc(-c3cccs3)ccc12 | 79.24 | 99.94 | 92.1 | 106.17 | 86.57 | 99.11 | 92.71 | 88.45 | 95.32 | 103.53 | 85.43 | 87.49 | 81.53 | 95.41 | 96.17 | 43.3 | 75.02 | 105.33 | 19.37 | 58.47 |
| Clc1ccc(-c2nc(-c3cccs3)no2)c(Cl)c1 | 107.53 | 99.27 | 73.54 | 107.44 | 96.15 | – | 107.35 | 97.42 | 104.48 | 92.07 | 83.22 | 71.42 | 91.42 | 81.96 | 88.68 | 103.49 | 102.9 | 88.07 | 8.37 | 122.72 |
| CC1(C)CC(=O)c2cc3c(N)c(C(=O)Nc4ccc(F)cc4)sc3nc2C1 | 96.07 | 115.29 | 100.72 | 88.4 | 106.71 | 115.83 | 108.89 | 104.75 | 131.09 | 104.48 | 110.47 | 105.13 | 102.43 | 98.34 | 102.68 | 102.36 | 104.25 | 106.24 | 112.64 | 122.76 |
| Cc1cc(C)c(NC(=O)c2sc3nc4c(cc3c2N)C(=O)CC(C)(C)C4)c(C)c1 | 102.77 | 112.78 | 96.97 | 81.11 | 90.16 | 108.84 | 105.64 | 103.33 | 122.53 | 102.63 | 87.69 | 97.91 | 100.45 | 82.45 | 92.57 | – | 95.48 | 106.45 | 85.24 | 119.22 |
| COc1cccc(C(=O)Nc2nc3ccc(Cl)cc3s2)c1 | 101.47 | 49.84 | 71.29 | 67.73 | 49 | 68.73 | 102.21 | 98.19 | 113.6 | 87.74 | 78.16 | 88.7 | 78.29 | 68.42 | 93.47 | 94.46 | 75.07 | 88.38 | 61.26 | 108.68 |
| COc1ccc(Cl)cc1C(=O)Nc1nc2ccc(Cl)cc2s1 | 86.39 | 94.77 | 86.52 | 169.8 | 86.76 | 103.5 | 95.02 | 75.8 | 102.79 | 93.65 | 84.45 | 126.89 | 99.37 | 84.36 | 89.17 | 81.24 | 101.67 | 100.98 | 76.66 | 103.7 |
| Cc1ccc(S(=O)(=O)Oc2ccc(-c3cnc4ccccc4n3)cc2)cc1 | 113.49 | 105.85 | 93.92 | 89.7 | 84.2 | 109.83 | 103.74 | 96.77 | 123.73 | 97 | 90.9 | 98.17 | 93.02 | 92.87 | 99.19 | 99.82 | 101.39 | 103.63 | 107.13 | 127.78 |
| Cc1ccc(C2=N/C(=C\c3ccccc3)C(=O)O2)cc1 | 103.23 | 108.78 | 100.23 | – | 106.22 | 95.82 | 130.71 | 103.22 | 103.53 | 109.3 | 104.18 | 112.19 | 95.94 | 101.22 | 102 | 105.76 | 107.34 | 102.61 | 99.59 | 108.55 |
| N#Cc1ccc(-n2nnc3ccccc32)cc1C#N | 101.14 | 96.37 | 99.78 | 91.5 | 92.97 | 107.7 | 100.39 | 99.49 | 112.27 | 106.55 | 100.51 | 133.56 | 88.08 | 85.44 | 96.73 | 99.41 | 100.66 | 94.36 | 99.52 | – |
| CC1(C)CC(=O)c2cc3c(N)c(C(=O)Nc4ccccc4Cl)sc3nc2C1 | 111.8 | 117.4 | 98.89 | 96.7 | 96.43 | – | 117.18 | 102.03 | 106.42 | 113.94 | 105.8 | 106.14 | 102.8 | 132.4 | 111.12 | 117.15 | 115.33 | 108.49 | 110.28 | 111.24 |
| O=C(Nc1ccc2oc(=O)ccc2c1)c1ccc(-c2ccc(Br)cc2)o1 | 101.06 | 114.03 | 108.33 | – | 95.77 | 101.52 | 112.24 | 95.42 | 105.93 | 100.9 | 111.02 | 102.05 | 105.32 | 183.36 | 112.35 | 105.3 | 101.15 | 107.9 | 122.28 | 121.49 |
| O=c1/c(=C/c2ccccc2)sc2nc(-c3ccc(Cl)cc3Cl)nn12 | 114.11 | 114.89 | 112.75 | 123.35 | 99.39 | – | 111.76 | 111.75 | 110.52 | 106.69 | 115.99 | 98.86 | 99.33 | 96.38 | 100.81 | 96.37 | 111.31 | 101.67 | 120.34 | 117.96 |
| Oc1ccccc1-c1nc(-c2cccs2)no1 | 104.64 | 100.01 | 64.4 | 109.56 | 96.52 | – | 117.42 | 101.07 | 102.55 | 95.65 | 85.02 | 89.67 | 96.76 | 97.52 | 93.28 | 100.28 | 106.13 | 95.69 | 44.64 | 107.16 |
| Cc1ccc(NC(=O)c2sc3nc4c(cc3c2N)C(=O)CCC4)c(Br)c1 | 108.91 | 97.82 | 103.46 | 91.32 | 104.86 | 111.67 | 118.46 | 107.4 | 100.23 | 101.57 | 102.4 | 131.53 | 103.96 | 94.2 | 99.85 | 102.77 | 102.67 | 97.41 | 106.56 | – |
